Measurements taken from patent publication US7304174B2, “CaSR antagonist” (Japan Tobacco Inc., priority 2003, dated 2007).

Key:
[1] = system: bone resorption; experiment: Concomitant administration of test compound and estrogen: bone resorption marker blood ICTP; assay type: in vivo, ovariectomized rats; settings: for Blood ICTP concentration: mean ± S.D., n = 5
Method: The 13-week-old ovariectomized rats were divided into 4 groups of a control group (Group A), an estrogen administration group (Group B), a test compound administration group (Group C), and a test compound and estrogen concomitant administration group (Group D). One sham control group (E group) subjected to a sham surgery was also established. Estradiol was dissolved in 5% benzyl alcohol-corn oil and subcutaneously administered to an estrogen administration groups (Group B and Group D) at the dose of 10 μg/kg. 5% Benzyl alcohol-corn oil was subcutaneously administered to groups (Group A and Group C) free from administration of estrogen. The compound of Example 1-1 was suspended in 0.5% methyl cellulose solution and orally administered to groups (Group C and Group D) to be administered with the test compound at the dose of 3 mg/kg. As regards the groups (Group A and Group B) free from administration of the test compound, 0.5% methyl cellulose solution was orally administered. On day 13 from the start of the administration, the blood was drawn in each group from the tail vein, and serum was obtained. ICTP, which is a blood bone resorption marker, was measured using a commercially available ELISA kit (“RatLaps ELISA kit”, Nordic Bioscience Diagnostics).

[2] = system: PTH secretion; experiment: PTH secretion action, Experimental Example 2 (serum PTH after oral administration); assay type: in vivo, male SD rats; settings: test compound administration group, 1 mg/5 ml/kg oral, rats fasted 20 hr
Method: The test compound was orally administered to 5 to 9-week-old male SD rats (Charles River Japan, Inc.) fasted for 20 hr, using a solvent (0.5% methyl cellulose solution) at a dose of 1 mg/5 ml/kg. A solvent alone was orally administered to the control group at a dose of 5 ml/kg. The blood was drawn from the tail vein immediately before and, 15 min, 30 min, 60 min and 120 min after the administration of the test compound, and serum was obtained. The serum PTH concentration was measured using rat PTH ELISA kit (Amersham Biosciences).

[3] = system: PTH secretion; experiment: Concomitant administration of test compound and estrogen: blood PTH with time; assay type: in vivo, ovariectomized rats; settings: for PTH (1–84) concentration 0.25 hr: day 16, 0.25 hr; for PTH (1–84) concentration 0.5 hr: day 16, 0.5 hr; for PTH (1–84) concentration 1 hr: day 16, 1 hr; for PTH (1–84) concentration 2 hr: day 16, 2 hr; for PTH (1–84) concentration 4 hr: day 16, 4 hr; for PTH (1–84) concentration 0 hr: day 16, immediately before oral administration
Method: The 13-week-old ovariectomized rats were divided into 4 groups of a control group (Group A), an estrogen administration group (Group B), a test compound administration group (Group C), and a test compound and estrogen concomitant administration group (Group D). One sham control group (E group) subjected to a sham surgery was also established. Estradiol was dissolved in 5% benzyl alcohol-corn oil and subcutaneously administered to an estrogen administration groups (Group B and Group D) at the dose of 10 μg/kg. 5% Benzyl alcohol-corn oil was subcutaneously administered to groups (Group A and Group C) free from administration of estrogen. The compound of Example 1-1 was suspended in 0.5% methyl cellulose solution and orally administered to groups (Group C and Group D) to be administered with the test compound at the dose of 3 mg/kg. As regards the groups (Group A and Group B) free from administration of the test compound, 0.5% methyl cellulose solution was orally administered.
In addition, blood was drawn with time for the measurement of blood PTH at day 16 of administration. The blood was drawn in each group from the tail vein immediately before oral administration and 0.25, 0.5, 1, 2 and 4 hr later, and serum was obtained. For serum PTH measurement, a commercially available ELISA kit (“rat intact PTH ELISA kit”, Immutopics) was used.

[4] = Group D concomitant with estradiol
[5] = exclusive administration (Group B estradiol; Group C Example 1-1 3 mg/kg oral)

Which “Effect of concomitant administration on suppression of ICTP increase by estrogen” value ([1]; Table 65, concomitant with estrogen) does the source give for `Cc1ccc(CC(C)(C)NC[C@@H](O)CO[C@H](C)c2ccccc2-c2ccc(C(=O)O)c(C)c2)cc1F` [Example 1-1, 2′-[(1R)-[(2R)-3-[[1-(3-Fluoro-4-methylphenyl)-2-methylpropan-2-yl]amino]-2-hydroxypropoxy]ethyl]-3-methylbiphenyl-4-carboxylic acid] here?
The value was “did not show changes in the ability to suppress estrogen”.

What about the “Blood ICTP concentration” value ([1]; day 13, Group D: Example 1-1 3 mg/kg oral and estradiol 10 μg/kg s.c. concomitant) of the same compound?
Its value is 21.77 ± 3.34 ng/mL.

What about the “Blood ICTP concentration” value ([1]; day 13, exclusive administration (Group B estradiol 10 μg/kg s.c.; Group C Example 1-1 3 mg/kg oral)) of the same compound?
Its value is 26.10 ± 3.45 ng/mL.

What about the “Serum PTH concentration 15 min later” value ([2]; 15 min) of the same compound?
The value was 43.9 ± 2.0 pg/mL.

What about the “Serum PTH concentration 30 min later” value ([2]; 30 min) of the same compound?
Its value is 25.0 ± 3.2 pg/mL.

What about the “Serum PTH concentration 60 min later” value ([2]; 60 min) of the same compound?
The value was 17.9 ± 2.0 pg/mL.

And the “Serum PTH concentration 120 min later” value ([2]; 120 min)?
The value was 14.8 ± 1.6 pg/mL.

What about the “Change of blood PTH with time” value ([3]; Table 66, Example 1-1 and estrogen concomitant administration) of the same compound?
Its value is “a transitional increase was observed”.

And the “Change of blood PTH with time” value ([3]; Table 66, exclusive administration)?
The value was “a transitional increase was observed”.

What about the “PTH (1–84) concentration 0.25 hr” value [3, 4] of the same compound?
The value was 407.35 ± 134.53 pg/mL.

And the “PTH (1–84) concentration 0.25 hr” value [3, 5]?
Its value is 371.21 ± 77.74 pg/mL.

And the “PTH (1–84) concentration 0.5 hr” value [3, 4]?
Its value is 418.87 ± 154.78 pg/mL.

What about the “PTH (1–84) concentration 0.5 hr” value [3, 5] of the same compound?
Its value is 370.78 ± 98.28 pg/mL.

What about the “PTH (1–84) concentration 1 hr” value [3, 4] of the same compound?
The value was 279.76 ± 117.98 pg/mL.

What about the “PTH (1–84) concentration 1 hr” value [3, 5] of the same compound?
Its value is 177.39 ± 96.06 pg/mL.

And the “PTH (1–84) concentration 2 hr” value [3, 4]?
The value was 115.50 ± 74.98 pg/mL.

And the “PTH (1–84) concentration 2 hr” value [3, 5]?
Its value is 117.51 ± 123.12 pg/mL.

What about the “PTH (1–84) concentration 4 hr” value [3, 4] of the same compound?
Its value is 58.84 ± 16.75 pg/mL.

And the “PTH (1–84) concentration 4 hr” value [3, 5]?
The value was 56.50 ± 12.29 pg/mL.

What about the “PTH (1–84) concentration 0 hr” value ([3]; Group D: Example 1-1 3 mg/kg oral and estradiol 10 μg/kg s.c. concomitant) of the same compound?
The value was 27.12 ± 4.58 pg/mL.

And the “PTH (1–84) concentration 0 hr” value ([3]; exclusive administration (Group B estradiol 10 μg/kg s.c.; Group C Example 1-1 3 mg/kg oral))?
Its value is 31.19 ± 16.28 pg/mL.
